On the set-up of data set [1]: method as in PMID 25822732. The conditions noted are these: cited from earlier work.
For another data set, the target named is T1, recombinant human MMP-2 (Homo sapiens, UniProt P08253).
T1 construct: purchased Anaspec Inc. AS72005
T1 sequence (P08253 110-660): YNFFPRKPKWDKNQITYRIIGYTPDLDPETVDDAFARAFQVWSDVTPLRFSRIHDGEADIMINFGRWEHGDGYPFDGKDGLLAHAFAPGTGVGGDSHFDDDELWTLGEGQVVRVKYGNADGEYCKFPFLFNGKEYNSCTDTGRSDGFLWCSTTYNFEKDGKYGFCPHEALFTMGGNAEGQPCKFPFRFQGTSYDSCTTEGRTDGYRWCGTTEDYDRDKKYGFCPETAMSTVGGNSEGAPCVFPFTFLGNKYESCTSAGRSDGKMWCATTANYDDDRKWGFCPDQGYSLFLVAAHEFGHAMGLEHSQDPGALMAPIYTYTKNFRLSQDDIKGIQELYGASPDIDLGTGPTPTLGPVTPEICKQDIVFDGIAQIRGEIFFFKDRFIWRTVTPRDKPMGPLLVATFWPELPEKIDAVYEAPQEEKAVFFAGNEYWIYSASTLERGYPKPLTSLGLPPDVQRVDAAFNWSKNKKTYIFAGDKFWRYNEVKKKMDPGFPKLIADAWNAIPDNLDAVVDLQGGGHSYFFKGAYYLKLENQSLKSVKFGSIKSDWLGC
The data set is described as follows: Competitive fluorogenic enzyme activity assay, MMP-2. In kind it is biochemical. Particulars: fluorogenic substrate 5 μM, 5 nM enzyme, 30 min; read-out: IC50 toward MMP-2. As for the experimental part: (§1) Determination of the IC50 toward human MMP-2, MMP-9, MMP-12 and MMP-13 was performed by a competitive enzyme activity assay according to a literature procedure. The assay was performed by incubating 5 μM of the synthesized fluorogenic peptide substrate Mca-Pro-Leu-Gly-Leu-Dpa(Dnp)-Ala-Arg-NH2 with 5 nM recombinant human MMP-2 (AS72005, Anaspec Inc., CA, USA), MMP-9 (911-MP, R&D Systems, MN, USA), MMP-12 (917-MP, R&D Systems) and MMP-13 (AS72011, Anaspec) along with various concentrations of ML5, I-ML5, PFB, PFP, IPFB, and IPFP (0.2–365 nM) in a buffer (pH 7.5, 50 mM tris(hydroxymethyl)aminomethane, 10 mM calcium chloride, 150 mM sodium chloride, and 0.01% Brij-35) containing 5% dimethyl sulfoxide. The increase in fluorescence over time was measured using a SpectraMax M2e microplate reader (Molecular Devices Inc., CA, USA) with an excitation wavelength of 325 nm and an emission wavelength of 395 nm. The fluorescence intensity after 30 min was plotted as a function of the concentration of each of the compounds on a logarithmic scale to produce an inhibition curve that was subsequently fit with a sigmoidal function by a least squares method. The IC50 values were calculated from the inhibition curves using GraphPad Prism 6 (GraphPad Software, Inc., CA, USA).

For the next data set, the target named is T2, recombinant human MMP-9 (Homo sapiens, UniProt P14780).
T2 construct: purchased R&D Systems 911-MP
T2 sequence (P14780 94-707): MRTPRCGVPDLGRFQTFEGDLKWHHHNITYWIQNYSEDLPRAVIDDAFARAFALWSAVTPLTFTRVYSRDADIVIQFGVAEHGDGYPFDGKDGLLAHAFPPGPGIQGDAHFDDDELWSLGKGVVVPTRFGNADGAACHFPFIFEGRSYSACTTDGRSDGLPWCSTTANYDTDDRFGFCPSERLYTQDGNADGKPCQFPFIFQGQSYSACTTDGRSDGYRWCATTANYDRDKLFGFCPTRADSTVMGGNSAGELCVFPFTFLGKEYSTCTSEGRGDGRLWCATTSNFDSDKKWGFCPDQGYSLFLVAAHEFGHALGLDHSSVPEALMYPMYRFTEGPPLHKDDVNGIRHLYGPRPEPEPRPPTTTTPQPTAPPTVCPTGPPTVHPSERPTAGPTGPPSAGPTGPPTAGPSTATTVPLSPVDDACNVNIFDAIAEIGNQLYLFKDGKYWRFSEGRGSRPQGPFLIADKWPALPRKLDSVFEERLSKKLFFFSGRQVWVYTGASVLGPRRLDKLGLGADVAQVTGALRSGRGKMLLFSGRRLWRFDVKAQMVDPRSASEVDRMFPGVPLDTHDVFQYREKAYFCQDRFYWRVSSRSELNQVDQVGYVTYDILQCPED
The data set is described as follows: Competitive fluorogenic enzyme activity assay, MMP-9. In kind it is biochemical. Particulars: fluorogenic substrate 5 μM, 5 nM enzyme, 30 min; read-out: IC50 toward MMP-9. The protocol:
as §1

Another data set deals with T3, recombinant human MMP-12 (Homo sapiens, UniProt P39900).
T3 construct: purchased R&D Systems 917-MP
T3 sequence (P39900 106-470): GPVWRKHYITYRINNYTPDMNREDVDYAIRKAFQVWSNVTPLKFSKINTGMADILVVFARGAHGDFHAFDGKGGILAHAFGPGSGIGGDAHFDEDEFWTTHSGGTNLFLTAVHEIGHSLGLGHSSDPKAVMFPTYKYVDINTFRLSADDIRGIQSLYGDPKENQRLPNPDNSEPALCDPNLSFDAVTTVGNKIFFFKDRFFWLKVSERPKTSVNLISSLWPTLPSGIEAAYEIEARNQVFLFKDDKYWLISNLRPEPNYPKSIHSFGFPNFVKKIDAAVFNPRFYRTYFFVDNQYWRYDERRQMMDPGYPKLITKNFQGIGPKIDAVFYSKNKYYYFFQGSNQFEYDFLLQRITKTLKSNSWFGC
Briefly: Competitive fluorogenic enzyme activity assay, MMP-12. The format is biochemical. The conditions noted are these: fluorogenic substrate 5 μM, 5 nM enzyme, 30 min; read-out: IC50 toward MMP-12. As for the experimental part:
Determination of the IC50 toward human MMP-2, MMP-9, MMP-12 and MMP-13 was performed by a competitive enzyme activity assay according to a literature procedure. […] The increase in fluorescence over time was measured using a SpectraMax M2e microplate reader (Molecular Devices Inc., CA, USA) with an excitation wavelength of 325 nm and an emission wavelength of 395 nm. The fluorescence intensity after 30 min was plotted as a function of the concentration of each of the compounds on a logarithmic scale to produce an inhibition curve that was subsequently fit with a sigmoidal function by a least squares method. The IC50 values were calculated from the inhibition curves using GraphPad Prism 6 (GraphPad Software, Inc., CA, USA).

The target in the next data set is T4, recombinant human MMP-13 (Homo sapiens, UniProt P45452).
T4 construct: purchased Anaspec AS72011
Briefly: Competitive fluorogenic enzyme activity assay, MMP-13. The format is biochemical. Particulars: fluorogenic substrate 5 μM, 5 nM enzyme, 30 min; read-out: IC50 toward MMP-13. As for the experimental part:
as §1

Another data set has as its system MMP-12. Details: method as in PMID 25438884. Particulars: fluorogenic inhibition assay; cited from earlier work.
A further data set relates to MMP-9. Also on record: method as in PMID 25438884. The conditions noted are these: fluorogenic inhibition assay; cited from earlier work.

As to `CC(C)C[C@H](CC(=O)NO)C(=O)N[C@@H](Cc1ccccc1)C(=O)N[C@@H](CCCCNC(=O)c1ccc([18F])cc1)C(N)=O` [^18F-FB-ML5], the “accumulation ratio of lung to liver” value in data set [1] is reported as below 0.1.
As to `CC(C)C[C@H](CC(=O)NO)C(=O)N[C@@H](Cc1ccccc1)C(=O)N[C@@H](CCCCN)C(N)=O` [ML5, reference compound], the IC50 (usually the concentration at which inhibition is half-maximal) on recombinant human MMP-2 is 9.6 ± 4.7 nM; on recombinant human MMP-9, 37.9 ± 5.2 nM; on recombinant human MMP-12, 2.8 ± 0.4 nM; at recombinant human MMP-13 it was 22.4 ± 8.1 nM; in the data set on MMP-12 it was 2 nM; with MMP-9, 19.5 nM.

The record behind these values is publication PMC5778071, “Development of matrix metalloproteinase-targeted probes for lung inflammation detection with positron emission tomography” (Scientific Reports, 2018).
